According to the supplement of paper PMC13380429:

Legend:
Details in all cases: 72 h
Vero E6 [1] = experiment: relative viability EC50 (midpoint between 100% and the lowest measured viability); higher = less toxic
Caco-2 [2] = experiment: as above
U2OS [3] = experiment: as above
HepG2 [4] = experiment: as above
Calu-3 [5] = experiment: as above
Vero E6 [6] = experiment: drug sensitivity score (DSS) for viability; higher = more toxic; extreme values may be limits of the assay
Caco-2 [7] = experiment: as above
U2OS [8] = experiment: as above
HepG2 [9] = experiment: as above
Calu-3 [10] = experiment: as above
Vero E6 [11] = experiment: cell viability relative to DMSO; higher = less toxic
Caco-2 [12] = experiment: as above
U2OS [13] = experiment: as above
HepG2 [14] = experiment: as above
Calu-3 [15] = experiment: as above

Row | SMILES | relative viability EC50 (Vero E6 [1]) | relative viability EC50 (Caco-2 [2]) | relative viability EC50 (U2OS [3]) | relative viability EC50 (HepG2 [4]) | relative viability EC50 (Calu-3 [5]) | drug sensitivity score (Vero E6 [6]) | drug sensitivity score (Caco-2 [7]) | drug sensitivity score (U2OS [8]) | drug sensitivity score (HepG2 [9]) | drug sensitivity score (Calu-3 [10]) | cell viability (Vero E6 [11]; 1 nM) | cell viability (Vero E6 [11]; 10 nM) | cell viability (Vero E6 [11]; 100 nM) | cell viability (Vero E6 [11]; 1000 nM) | cell viability (Vero E6 [11]; 10000 nM) | cell viability (Caco-2 [12]; 1 nM) | cell viability (Caco-2 [12]; 10 nM) | cell viability (Caco-2 [12]; 100 nM) | cell viability (Caco-2 [12]; 1000 nM) | cell viability (Caco-2 [12]; 10000 nM) | cell viability (U2OS [13]; 1 nM) | cell viability (U2OS [13]; 10 nM) | cell viability (U2OS [13]; 100 nM) | cell viability (U2OS [13]; 1000 nM) | cell viability (U2OS [13]; 10000 nM) | cell viability (HepG2 [14]; 1 nM) | cell viability (HepG2 [14]; 10 nM) | cell viability (HepG2 [14]; 100 nM) | cell viability (HepG2 [14]; 1000 nM) | cell viability (HepG2 [14]; 10000 nM) | cell viability (Calu-3 [15]; 1 nM) | cell viability (Calu-3 [15]; 10 nM) | cell viability (Calu-3 [15]; 100 nM) | cell viability (Calu-3 [15]; 1000 nM) | cell viability (Calu-3 [15]; 10000 nM)
1 | Cc1sc(N)c(C(=O)c2cccc(C(F)(F)F)c2)c1C | > 10 µM | > 10 µM | > 10 µM | > 10 µM | > 10 µM | 0 | 0 | 0 | 0 | 0 | 98.1% | 96.9% | 98% | 99.3% | 100% | 97.7% | 96.6% | 97% | 95.6% | 90.6% | 97.9% | 95.9% | 99.9% | 94.9% | 102% | 92.3% | 102% | 93.2% | 96.7% | 92.7% | 100% | 91.9% | 99.2% | 100% | 109%
2 | Cn1ccc2cc(NC(=O)Nc3cccnc3)ccc21 | > 10 µM | > 10 µM | > 10 µM | > 10 µM | > 10 µM | 0 | 0.2 | 0 | 0 | 0 | 105% | 102% | 103% | 97.7% | 103% | 100% | 97.9% | 88.7% | 84.5% | 95.8% | 105% | 98.8% | 101% | 97.1% | 100% | 91.5% | 102% | 92.3% | 95.8% | 97.2% | 108% | 97.6% | 98.1% | 94.9% | 98%
3 | Fc1ccc(CN2CCC(Nc3ccc(C(F)(F)F)nn3)CC2)cc1F | > 10 µM | > 10 µM | > 10 µM | > 10 µM | > 10 µM | 0 | 0 | 0 | 0.8 | 0 | 90.3% | 101% | 97.4% | 98.5% | 104% | 100% | 95.8% | 101% | 94.7% | 94.1% | 101% | 95.5% | 95.6% | 102% | 101% | 90.1% | 108% | 91.2% | 88.1% | 93.4% | 112% | 97.6% | 86.9% | 91.7% | 107%
4 | Nc1nc(=O)c2sc(=O)n([C@@H]3O[C@H](CO)[C@@H](O)[C@H]3O)c2[nH]1 | > 10 µM | > 10 µM | > 10 µM | > 10 µM | > 10 µM | 0 | 0 | 0 | 0 | 0 | 94.9% | 98.7% | 97% | 95.8% | 102% | 95.1% | 90.6% | 92.7% | 99.6% | 103% | 97.2% | 93.6% | 95.4% | 102% | 102% | 91.6% | 99.5% | 107% | 107% | 97.2% | 94.2% | 110% | 97% | 95.3% | 97.5%
5 | O=C(O)[C@H]1CC[C@H](c2cc3cccnc3c(-c3cccc(F)c3)n2)CC1 | > 10 µM | > 10 µM | > 10 µM | > 10 µM | > 10 µM | 0.2 | 0 | 0 | 0 | 0 | 101% | 99.3% | 96.3% | 99% | 86.3% | 102% | 103% | 108% | 98% | 109% | 104% | 98.4% | 96.9% | 96.5% | 99.6% | 96.3% | 98.9% | 101% | 92.2% | 90.1% | 112% | 95.1% | 91.1% | 95% | 107%
6 | COc1cc(C(=O)N(CC[C@H]2CCCN2C)C/C(C)=C/c2ccccc2F)cc(OC)c1OC (racemic) | > 10 µM | > 10 µM | > 10 µM | > 10 µM | > 10 µM | 0 | 0 | 0 | 0.1 | 0 | 102% | 102% | 103% | 99.5% | 99% | 97.4% | 98.7% | 99.7% | 103% | 93.5% | 98.6% | 96.8% | 102% | 99.2% | 97.7% | 103% | 102% | 95.8% | 104% | 86.6% | 93.5% | 108% | 103% | 104% | 94.4%
7 | Cc1ccc(OC[C@@H](O)[C@H](C)NC(C)C)c2c1CCC2 (racemic) [ICI-118,551] | > 10 µM | > 10 µM | > 10 µM | > 10 µM | > 10 µM | 0 | 0 | 0 | 0 | 0 | 98.6% | 94.2% | 101% | 90.5% | 94.1% | 109% | 103% | 99.2% | 109% | 97.8% | 108% | 98.5% | 113% | 100% | 113% | 111% | 106% | 100% | 111% | 95.3% | 121% | 98.9% | 109% | 105% | 112%
8 | CCCCCCCCCCCCCCCCCCCCCCCCCCCCO [1-octacosanol] | > 10 µM | > 10 µM | > 10 µM | > 10 µM | > 10 µM | 0 | 0 | 0 | 0 | 0 | 95.5% | 98.5% | 96.7% | 95.6% | 104% | 95.4% | 85.8% | 97% | 91.8% | 95% | 97.6% | 96.5% | 102% | 96.2% | 96% | 103% | 109% | 97.6% | 116% | 102% | 99.1% | 105% | 102% | 95.5% | 96.1%
9 | COc1ccn2ncc(-c3nc4[nH]nc(NC(=O)c5ccc(F)cc5)c4cc3F)c2c1 [CW-008] | > 10 µM | > 10 µM |  | > 10 µM | > 10 µM | 0.1 | 0.6 |  | 0 | 0 | 93.6% | 98.5% | 99.4% | 97% | 89.1% | 99.1% | 92.5% | 91.2% | 89.6% | 87.7% |  |  |  |  |  | 109% | 102% | 95.2% | 101% | 93.1% | 109% | 107% | 113% | 97.8% | 97.2%
10 | CCc1c(O)cc(O)c(C(=O)c2ccc(OCCN3CCOCC3)c(OC)c2)c1CC(=O)N(CCOC)CCOC [KW-2478] | > 10 µM | 1.14 µM | 2.93 µM | 1.33 µM |  | 0 | 5.9 | 3 | 9.6 | 5.4 | 98.6% | 103% | 96.1% | 99.1% | 100% | 110% | 96.3% | 101% | 77.6% | 46.5% | 98.8% | 95.3% | 100% | 98.3% | 47.5% | 108% | 103% | 109% | 69.1% | 5.8% | 104% | 110% | 100% | 76.9% | 53.4%
11 | COc1ccc2[nH]c3c(-c4cccc5ccccc45)nccc3c2c1 [SP-141] | 0.453 µM | 0.741 µM | 0.873 µM | 0.332 µM |  | 11.5 | 8.1 | 9.9 | 10.2 | 5.3 | 95.5% | 101% | 97.8% | 39.1% | 29.2% | 91.8% | 103% | 99.2% | 60% | 39.5% | 110% | 109% | 106% | 53.9% | 21.3% | 102% | 101% | 95.9% | 47.8% | 42.8% | 98.7% | 106% | 105% | 67.4% | 67.2%
12 | Cn1cnc([N+](=O)[O-])c1Sc1ncnc2[nH]cnc12 [azathioprine] | > 10 µM | > 10 µM |  | 1.46 µM | > 10 µM | 0.7 | 0 | 5.2 | 7.7 | 0 | 94.2% | 96.6% | 94.8% | 96% | 82.7% | 110% | 86.8% | 93% | 92.7% | 92.9% | 104% | 97.9% | 96.2% | 71.9% | 78.9% | 95.2% | 89.7% | 93% | 75.1% | 20% | 94.8% | 93.6% | 93.1% | 94.4% | 98.7%
13 | C[C@H](N)[C@H](O)c1ccc(O)c(O)c1 [levonordefrin] | > 10 µM | > 10 µM |  | > 10 µM | > 10 µM | 0 | 0 |  | 0 | 0 | 109% | 109% | 103% | 108% | 91.9% | 97.8% | 89.7% | 96.8% | 88.6% | 93.8% |  |  |  |  |  | 105% | 105% | 97% | 96.8% | 93.9% | 102% | 96.8% | 98% | 104% | 100%
14 | CC(C)C[C@H](NC(=O)[C@@H]1CCCN1)C(=O)NCC(N)=O [prolylleucylglycinamide] | > 10 µM | > 10 µM |  | > 10 µM | > 10 µM | 0 | 0 |  | 0 | 0 | 102% | 105% | 102% | 103% | 98.2% | 95% | 95.1% | 98.1% | 96% | 96.6% |  |  |  |  |  | 109% | 107% | 107% | 99.2% | 107% | 97.1% | 96.3% | 99.4% | 106% | 104%
15 | CCN(CC)CCNC(=O)c1cc(S(C)(=O)=O)ccc1OC [tiapride] | > 10 µM | > 10 µM |  | > 10 µM | > 10 µM | 0 | 0 |  | 0 | 0 | 99.9% | 100% | 103% | 99.5% | 104% | 104% | 93.5% | 95.9% | 100% | 101% |  |  |  |  |  | 102% | 103% | 94.2% | 103% | 97.5% | 97.5% | 89.2% | 101% | 106% | 100%
